Where two headings read alike, the source gives them in different places.
How the values were obtained:
[1] = biological target: T1, Recombinant human PKC-theta (His-tagged 362-706) (Homo sapiens, UniProt Q04759); assay: PKC-theta inhibition assay (HTRF KinEASE kit); type: biochemical; conditions: ATP 6.5 μM, STK substrate 525 nM
T1 construct: Recombinant human PKC-theta (His-tagged 362-706); His
Experimental: PKC-theta and PKC-delta biochemical activities were measured using the PKC-theta HTRF KinEASEkit kit, according to manufacturer's instructions (Cisbio, catalogue number 61ST1PEJ). Briefly, the kinase buffer component of the kit was supplemented with 10 mM MgCl2, 1 mM DTT and 0.1% Tween 20. […] The streptavidin_XL665 and STK antibody-cryptate detection reagents were mixed according to the manufacturer's instructions. Test compounds were diluted in DMSO in a series of 10 semi-log step doses; 10 nL of each compound dose were dispensed in 384 well plates. […] The reaction was started by addition of the substrate and ATP and incubated at 25° C. for 30 minutes or 20 minutes for the PKC-theta and PKC-delta assays, respectively. The detection reagents were added, and the plate was incubated in the dark for 2 hours. […] The ratio of acceptor and donor emission signals was calculated for each well. Percent inhibition values were calculated from the HTRF ratios at different doses and fitted to a 4-parameter logistic curve to determine IC50 values (see Table 2).

[2] = biological target: T2, Recombinant human PKC-delta (His-tagged 345-676) (Homo sapiens, UniProt Q05655); assay: PKC-delta inhibition assay (HTRF KinEASE kit); type: biochemical; conditions: ratio, PKC-theta vs PKC-delta HTRF; for PKC-theta/PKC-delta selectivity (binned): binned A to G
T2 construct: PKC-delta (His-tagged 345-676); His
T2 sequence (Q05655 345-676): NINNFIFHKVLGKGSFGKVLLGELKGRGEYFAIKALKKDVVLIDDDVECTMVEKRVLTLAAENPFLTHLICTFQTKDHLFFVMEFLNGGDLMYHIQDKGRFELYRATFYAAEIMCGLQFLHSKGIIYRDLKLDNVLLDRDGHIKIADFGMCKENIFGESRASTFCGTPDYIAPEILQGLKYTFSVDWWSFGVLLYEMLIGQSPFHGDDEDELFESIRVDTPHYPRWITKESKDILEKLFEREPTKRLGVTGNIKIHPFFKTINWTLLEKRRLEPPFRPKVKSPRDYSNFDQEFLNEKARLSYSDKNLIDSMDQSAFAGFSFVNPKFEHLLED

[3] = system: IL-2 secretion by human effector memory T cells (TEM); assay: Effector memory T cells IL-2 release assay (CD3/CD28 stimulation, HTRF IL-2 detection); type: cell-based; conditions: Homo sapiens, T-cell, 24 h
Experimental: Test compound-mediated inhibition of NFκB signalling in T cells was assessed by quantification of the IL-2 secretion by human effector memory T cells (TEM) upon treatment and stimulation. Human TEM cells were isolated from buffy coats of healthy donors obtained from the French blood bank.
Finally, 10 doses of test compound, originally prepared in DMSO by serial semi-log step dilution, were also added to cells in triplicate wells. Final DMSO concentration in wells was 0.1% in a total volume of 100 μL complete medium. Plates were incubated for 24 h at 37° C. in 5% CO2 atmosphere. After incubation, cell suspensions were centrifuged at 400×g and culture supernatants were recovered and stored at −80° C. […] IL-2 levels were determined in cell supernatants using an HTRF human IL-2 detection kit (Cisbio, cat #62HIL02PEH).

[4] = binned A to H, read-out: PKC-theta HTRF pIC50 (binned) (converted)
[5] = read-out: PKC-theta HTRF pIC50 (converted)
[6] = binned A to G, read-out: PKC-theta IL2 pIC50 (binned) (converted)
[7] = read-out: PKC-theta IL2 pIC50 (converted)

T1 sequence (Q04759 362-706): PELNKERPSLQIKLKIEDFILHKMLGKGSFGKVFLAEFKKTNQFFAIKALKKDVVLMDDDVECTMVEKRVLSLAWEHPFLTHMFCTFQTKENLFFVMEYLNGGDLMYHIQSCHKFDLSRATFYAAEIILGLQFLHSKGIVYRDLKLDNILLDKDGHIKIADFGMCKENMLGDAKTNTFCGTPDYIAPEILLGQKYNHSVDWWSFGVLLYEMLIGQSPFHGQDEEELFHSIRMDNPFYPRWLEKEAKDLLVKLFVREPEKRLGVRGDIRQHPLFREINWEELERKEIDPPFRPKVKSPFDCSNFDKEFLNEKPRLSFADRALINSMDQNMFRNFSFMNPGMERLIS

Row | Compound | IC50 [1, 4] [nM] | IC50 [1, 5] [nM] | PKC-theta/PKC-delta selectivity [2] | PKC-theta/PKC-delta selectivity (binned) [2] | IC50 [3, 6] [nM] | IC50 [3, 7] [nM]
1 | C[C@@H]1CN(c2cc(C(F)(F)F)cc(-c3ccnc4c3[C@](C)(O)C(=O)N4)n2)[C@H](C)CN1 (single isomer, unassigned) [Example 119] | 3.16 to 10 | 3.98 | 12 | D (a ratio of between 10 and 20) | 100 to 316 | 200
2 | COC1(C)C(=O)Nc2nccc(-c3cc(F)cc(N4CCNCC4)c3)c21 (stereo not shown) [Example 57] | 31.6 to 100 | 50.1 | 6 | E (a ratio of between 5 and 10) | 316 to 1000 | 631
3 | CC1(F)CNCCN(c2cc(Cl)cc(-c3ccnc4c3[C@](C)(O)C(=O)N4)n2)C1 (single isomer, unassigned) [Example 92] | 3.16 to 10 | 7.94 | 6 | E (a ratio of between 5 and 10) | 100 to 316 | 200
4 | O=c1[nH]c2nccc(-c3cc(F)cc(N4CCNCC4)c3)c2[nH]1 [Example 7] | 100 to 316 | 100 | 2 | F (a ratio of between 1 and 5) | > 1000 | 2510
5 | O=C1Nc2nccc(-c3cc(C(F)(F)F)cc(N4CCNCC4)n3)c2C12CCCC2 [Example 103] | 10 to 31.6 | 15.8 | 6 | E (a ratio of between 5 and 10) | 100 to 316 | 100
6 | O=c1[nH]c2nccc(-c3cccc(N4CCNCC4c4cccnc4)c3)c2[nH]1 (stereo not shown) [Example 12] | > 1000 | 5010 | 1 | G (a ratio of 0 to 1) | > 1000 | 10000
7 | CC1(C)C(=O)Nc2nccc(-c3cc(C(F)(F)F)cc(N4CCNC5(CC5)C4)n3)c21 [Example 84] | 3.16 to 10 | 7.94 | 14 | D (a ratio of between 10 and 20) | 316 to 1000 | 316
8 | CCC1(C)C(=O)Nc2nccc(-c3cc(Cl)cc(N4CCN[C@@H](C)C4)n3)c21 (stereo partly shown) [Example 147] | 1 to 3.16 | 2.51 | 10 | D (a ratio of between 10 and 20) | 31.6 to 100 | 31.6
9 | CC[C@@H]1CNCCN1c1cc(C(F)(F)F)cc(-c2ccnc3c2[C@](C)(O)C(=O)N3)n1 (single isomer, unassigned) [Example 129] | 0.316 to 1 | 0.501 | 3 | F (a ratio of between 1 and 5) | 3.16 to 10 | 3.98
10 | CC1(C)C(=O)Nc2nccc(-c3cc(C(F)(F)F)cc(N4CCNCC4)n3)c21 [Example 66] | 3.16 to 10 | 5.01 | 13 | D (a ratio of between 10 and 20) | 31.6 to 100 | 79.4
11 | C[C@]1(O)C(=O)Nc2nccc(-c3cc(F)cc(N4CCNCC4)c3)c21 (single isomer, unassigned) [Example 62] | 3.16 to 10 | 6.31 | 5 | E (a ratio of between 5 and 10) | 100 to 316 | 126
12 | C[C@@]1(O)C(=O)Nc2nccc(-c3cc(C(F)(F)F)cc(N4CC5CCC4CN5)n3)c21 (single isomer, unassigned) [Example 138] | 10 to 31.6 | 15.8 | 16 | D (a ratio of between 10 and 20) | 316 to 1000 | 631
13 | CC1(C)C(=O)Nc2nccc(-c3cccc(C4(CO)CCNC4)c3)c21 (stereo not shown) [Example 43] | 3.16 to 10 | 7.94 | 3 | F (a ratio of between 1 and 5) | 316 to 1000 | 631
14 | CC1(C)C(=O)Nc2nccc(-c3nc(N4CCNCC4)c(F)cc3Cl)c21 [Example 207] | 100 to 316 | 251 | 5 | F (a ratio of between 1 and 5) | > 1000 | 2000
15 | CO[C@]1(C)C(=O)Nc2nccc(-c3cc(C(C)(F)F)cc(N4CCNC[C@H]4C)n3)c21 (single isomer, unassigned) [Example 193] | 3.16 to 10 | 10 | 16 | D (a ratio of between 10 and 20) | 31.6 to 100 | 79.4
16 | C[C@@H]1NCCN(c2cc(C(F)(F)F)cc(-c3ccnc4c3[C@](C)(O)C(=O)N4)n2)[C@@H]1C [Example 126] | 1 to 3.16 | 1.26 | 12 | D (a ratio of between 10 and 20) | 10 to 31.6 | 25.1
17 | CC1(C)CN(c2cc(C(F)(F)F)cc(-c3ccnc4c3[C@](C)(O)C(=O)N4)n2)CCN1 (single isomer, unassigned) [Example 134] | 3.16 to 10 | 7.94 | 10 | D (a ratio of between 10 and 20) | 100 to 316 | 100
18 | CC1(O)C(=O)Nc2nccc(-c3cc(Cl)cc(N4CCNCC4)c3)c21 (stereo not shown) [Example 55] | 10 to 31.6 | 10 | 9 | E (a ratio of between 5 and 10) | 316 to 1000 | 398
19 | COc1cc(-c2ccnc3[nH]c(=O)[nH]c23)cc(N2CCNCC2)c1 [Example 9] | > 1000 | 2000 | 1 | G (a ratio of 0 to 1) | > 1000 | 1260
20 | C[C@H]1CNCCN1c1cc(F)cc(-c2ccnc3c2C(C)(O)C(=O)N3)c1 (stereo partly shown) [Example 58] | 10 to 31.6 | 12.6 | 7 | E (a ratio of between 5 and 10) | 316 to 1000 | 316
21 | C[C@H]1CN(c2cccc(-c3ccnc4c3C(C)(C)C(=O)N4)c2)CCN1 [Example 52] | 100 to 316 | 126 | 2 | F (a ratio of between 1 and 5) | > 1000 | 1580
22 | CC1(C)C(=O)Nc2nccc(-c3cccc(N(CC4COC4)C4CCNCC4)c3)c21 [Example 41] | 31.6 to 100 | 79.4 | 3 | F (a ratio of between 1 and 5) | > 1000 | 2000
23 | C[C@@H]1CN(c2cc(C(F)(F)F)cc(-c3ccnc4c3C(C)(C)C(=O)N4)n2)[C@@H](C)CN1 [Example 117] | 10 to 31.6 | 12.6 | 10 | D (a ratio of between 10 and 20) | 100 to 316 | 200
24 | C[C@@H]1CN(c2cc(C(F)(F)F)cc(-c3ccnc4c3[C@](C)(O)C(=O)N4)n2)CCN1 (single isomer, unassigned) [Example 108] | 10 to 31.6 | 12.6 | 15 | D (a ratio of between 10 and 20) | 100 to 316 | 126
25 | O=c1[nH]c2nccc(-c3ccnc(N4CCNCC4)c3)c2[nH]1 [Example 13] | 316 to 1000 | 398 |  |  | > 1000 | 10000
26 | CC[C@@]1(C)C(=O)Nc2nccc(-c3cc(Cl)cc(N4CCN[C@@H](C)C4)n3)c21 (single isomer, unassigned) [Example 170] | 3.16 to 10 | 6.31 |  |  | 100 to 316 | 100
27 | C[C@H]1CN(c2cc(Cl)cc(-c3ccnc4c3C(C)(O)C(=O)N4)n2)CCN1 (stereo partly shown) [Example 74] |  |  | 12 | D (a ratio of between 10 and 20) |  | 

Source: patent publication US20260035367A1 (Celgene Corporation, priority 2021, published 2026)
